According to patent US8362259B2, “Process for the preparation of esomeprazole magnesium in a stable form” (Lek Pharmaceuticals, D.D., priority 2008, dated 2013):

Key:
Assay type in all cases: physicochemical
[1] = physical (polymorphic) stability under stress conditions; conditions: 14 days 40° C./75% relative humidity, 7 days 60° C.
Description: In addition, also physical stability of esomeprazole magnesium dihydrate form A obtained according to the present invention was tested.

[2] = stress stability testing, HPLC related substances and degradation products; parameters: HPLC related substance RRt 0.10 / HPLC related substance RRt 0.11 / HPLC related substance RRt 0.16 / HPLC related substance RRt 0.20 / HPLC related substance RRt 1.45 / HPLC related substance RRt 1.59 / HPLC related substance RRt 1.61 / HPLC related substance RRt 2.20 / HPLC related substance RRt 2.25: unit not given here
Description: Illustratively, it was tested under regular pharmaceutical tests such as stress condition test (Table 1) and was compared with chemical stability of the starting amorphous esomeprazole magnesium or esomeprazole Mg dihydrate form B (Table 2).

[3] = removal of residual solvents by drying (Comparative Example 2); conditions: drying at high temperatures
From the text: Further removing of residual solvents was studied on amorphous esomeprazole magnesium by drying.

[4] = 40° C./75 RH, open dish, 14 days, open vial

Molecule: magnesium bis(5-methoxy-2-[(S)-[(4-methoxy-3,5-dimethyl-2-pyridinyl)methyl]sulfinyl]-1H-benzimidazole) [Esomeprazole magnesium dihydrate form A]
- physical stability of the polymorphic form [1]: stable
- Chromatographic purity [2, 4]: 99.85
- HPLC - Related substances and degradation products: Sum [2, 4]: ≦0.05
- Chromatographic purity ([2]; 60° C., 7 days, vial): 99.82
- HPLC - Related substances and degradation products: Sum ([2]; 60° C., 7 days, vial): ≦0.05
- Chromatographic purity ([2]; Initial analysis): 99.85

Molecule: COc1ccc2[n-]c([S@@+]([O-])Cc3ncc(C)c(OC)c3C)nc2c1.COc1ccc2[n-]c([S@@+]([O-])Cc3ncc(C)c(OC)c3C)nc2c1.O.O.[Mg+2]
- chemical stability compared among the three forms of esomeprazole magnesium ([2]; stress stability testing, all three forms compared): chemically the most stable form

Molecule: magnesium bis(5-methoxy-2-[(S)-[(4-methoxy-3,5-dimethyl-2-pyridinyl)methyl]sulfinyl]-1H-benzimidazole) [Amorphous esomeprazole magnesium]
- chemical stability on drying to remove residual solvents [3]: accompanied by chemical decomposition
- HPLC - Related substances and degradation products: Sum [2, 4]: 0.43
- HPLC related substance OMP-benzimidazole (Ph. Eur. Imp. A) [2, 4]: 0.04
- HPLC related substance RRt 0.10 [2, 4]: 0.04
- HPLC related substance RRt 0.11 [2, 4]: 0.09
- HPLC related substance RRt 0.16 [2, 4]: 0.07
- HPLC related substance RRt 0.20 [2, 4]: 0.04
- HPLC related substance RRt 1.45 [2, 4]: 0.06
- HPLC related substance RRt 2.20 [2, 4]: 0.09
- HPLC - Related substances and degradation products: Sum ([2]; 60° C., 7 days, vial): 0.79
- HPLC related substance OMP-N-oxide (Ph. Eur. Imp. E) ([2]; 60° C., 7 days, vial): 0.03
- HPLC related substance OMP-N-sufone (Ph. Eur. Imp. D) ([2]; 60° C., 7 days, vial): 0.03
- HPLC related substance OMP-benzimidazole (Ph. Eur. Imp. A) ([2]; 60° C., 7 days, vial): 0.06
- HPLC related substance RRt 0.11 ([2]; 60° C., 7 days, vial): 0.12
- HPLC related substance RRt 0.16 ([2]; 60° C., 7 days, vial): 0.18
- HPLC related substance RRt 0.20 ([2]; 60° C., 7 days, vial): 0.06
- HPLC related substance RRt 1.45 ([2]; 60° C., 7 days, vial): 0.15
- HPLC related substance RRt 2.20 ([2]; 60° C., 7 days, vial): 0.07
- HPLC related substance RRt 2.25 ([2]; 60° C., 7 days, vial): 0.09
- HPLC - Related substances and degradation products: Sum ([2]; Initial analysis): 0.10
- HPLC related substance RRt 0.16 ([2]; Initial analysis): 0.06
- HPLC related substance RRt 1.45 ([2]; Initial analysis): 0.04

Molecule: magnesium bis(5-methoxy-2-[(S)-[(4-methoxy-3,5-dimethyl-2-pyridinyl)methyl]sulfinyl]-1H-benzimidazole) [Esomeprazole magnesium dihydrate form B]
- HPLC - Related substances and degradation products: Sum [2, 4]: 0.14
- HPLC related substance RRt 1.59 [2, 4]: 0.06
- HPLC related substance RRt 1.61 [2, 4]: 0.06
- HPLC - Related substances and degradation products: Sum ([2]; 60° C., 7 days, vial): 0.07
- HPLC related substance Omeprazole-N-methyl ([2]; 60° C., 7 days, vial): 0.07
- HPLC - Related substances and degradation products: Sum ([2]; Initial analysis): <0.05
